Test results: patent publication US6737383B1, “Herbicidal oxadiazolidines” (priority 1999, dated 2004)

Key:
[1] = test system: bedstraw; experiment: Test B pre/postemergence bedstraw; assay type: in vivo, Galium aparine
Method in brief: (§1)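 Herbicidal effect was estimated by eye on a ten-point control scale after plants spent twelve to sixteen days in a greenhouse following soil or foliar treatment. Foliar sprays targeted plants at one to four leaves; all doses were formulated in a non-phytotoxic solvent with surfactant.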

[2] = test system: soybean; experiment: Test B pre/postemergence soybean; assay type: in vivo, Glycine max
Method in brief: as §1

[3] = test system: corn; experiment: Test B pre/postemergence corn; assay type: in vivo, Zea mays
Method in brief: as §1

[4] = test system: blackgrass; experiment: Test B pre/postemergence blackgrass; assay type: in vivo, Alopecurus myosuroides
Method in brief: as §1

[5] = test system: smallflower flatsedge; experiment: Test B flood test smallflower flatsedge; assay type: in vivo, Cyperus difformis
Method in brief: (§2)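 Flood test on plants grown to the 2-leaf stage; treated plants kept in greenhouse twelve to sixteen days, then visually rated against controls on a 0 (no effect) to 10 (complete control) scale.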

[6] = test system: crabgrass; experiment: Test B pre/postemergence crabgrass; assay type: in vivo, Digitaria sanguinalis
Method in brief: as §1

[7] = test system: pigweed; experiment: Test B pre/postemergence pigweed; assay type: in vivo, Amaranthus retroflexus
Method in brief: as §1

[8] = test system: rape; experiment: Test B pre/postemergence rape; assay type: in vivo, Brassica napus
Method in brief: as §1

[9] = test system: velvetleaf; experiment: Test B pre/postemergence velvetleaf; assay type: in vivo, Abutilon theophrasti
Method in brief: as §1

[10] = test system: purple nutsedge; experiment: Test B pre/postemergence purple nutsedge; assay type: in vivo, Cyperus rotundus
Method in brief: as §1

[11] = test system: wild oat; experiment: Test B pre/postemergence wild oat; assay type: in vivo, Avena fatua
Method in brief: as §1

[12] = test system: sugar beet; experiment: Test B pre/postemergence sugar beet; assay type: in vivo, Beta vulgaris
Method in brief: as §1

[13] = test system: rice; experiment: Test B flood test rice; assay type: in vivo, Oryza sativa
Method in brief: as §2

[14] = test system: duck salad; experiment: Test B flood test duck salad; assay type: in vivo, Heteranthera limosa
Method in brief: as §2

[15] = test system: surinam grass; experiment: Test B pre/postemergence surinam grass; assay type: in vivo, Brachiaria decumbens
Method in brief: as §1

[16] = test system: wheat; experiment: Test B pre/postemergence wheat; assay type: in vivo, Triticum aestivum
Method in brief: as §1

[17] = Preemergence, Rate 62 g/ha, scale of 0 to 10 where 0 is no effect and 10 is complete control
[18] = Preemergence, Rate 250 g/ha, scale of 0 to 10 where 0 is no effect and 10 is complete control
[19] = Preemergence, Rate 500 g/ha, scale of 0 to 10 where 0 is no effect and 10 is complete control
[20] = Rate 62 g/ha, Postemergence, scale of 0 to 10 where 0 is no effect and 10 is complete control
[21] = Rate 125 g/ha, Postemergence, scale of 0 to 10 where 0 is no effect and 10 is complete control
[22] = Rate 125 g/ha, Preemergence, scale of 0 to 10 where 0 is no effect and 10 is complete control
[23] = Rate 250 g/ha, Postemergence, scale of 0 to 10 where 0 is no effect and 10 is complete control
[24] = Rate 500 g/ha, Postemergence, scale 0 to 10, 0 no effect, 10 complete control
[25] = Rate 62 g/ha, headed Pre-emergence (flood test species), scale 0 to 10 (0 no effect, 10 complete control)
[26] = Rate 125 g/ha, Pre-emergence, flood test species, scale 0 to 10 where 0 is no effect and 10 is complete control
[27] = Rate 250 g/ha, Pre-emergence, flood-test species, scale 0 to 10, 0 is no effect, 10 is complete control
[28] = Rate 500 g/ha, Pre-emergence, flood test species, scale 0 to 10 (0 no effect, 10 complete control)

Cc1ccccc1-n1c(=O)on(C(=O)N(c2ccc(C(C)(C)C)cc2)C(C)C)c1=O [Compound 270]
0: Bedstraw plant response rating [1, 17] | Bedstraw plant response rating [1, 18] | Plant response rating, Bedstraw [1, 19] | Bedstraw plant response rating [1, 20] | Bedstraw plant response rating [1, 21] | Bedstraw plant response rating [1, 22] | Plant response rating, Bedstraw [1, 23] | Bedstraw plant response rating [1, 24] | Soybean plant response rating [2, 17] | Soybean plant response rating [2, 18] | Plant response rating, Soybean [2, 19] | Soybean plant response rating [2, 21] | Soybean plant response rating [2, 22] | Corn plant response rating [3, 17] | Corn plant response rating [3, 18] | Plant response rating, Corn [3, 19] | Corn plant response rating [3, 20] | Corn plant response rating [3, 21] | Corn plant response rating [3, 22] | Plant response rating, Corn [3, 23] | Corn plant response rating [3, 24] | Blackgrass plant response rating [4, 17] | Blackgrass plant response rating [4, 18] | Plant response rating, Blackgrass [4, 19] | Blackgrass plant response rating [4, 20] | Blackgrass plant response rating [4, 21] | Blackgrass plant response rating [4, 22] | Plant response rating, Blackgrass [4, 23] | Blackgrass plant response rating [4, 24] | S. Flatsedge plant response rating [5, 25] | S. Flatsedge plant response rating [5, 26] | S. Flatsedge plant response rating [5, 27] | S. Flatsedge plant response rating [5, 28] | Crabgrass plant response rating [6, 17] | Crabgrass plant response rating [6, 18] | Plant response rating, Crabgrass [6, 19] | Crabgrass plant response rating [6, 21] | Crabgrass plant response rating [6, 22] | Plant response rating, Crabgrass [6, 23] | Crabgrass plant response rating [6, 24] | Redroot pigweed plant response rating [7, 17] | Redroot pigweed plant response rating [7, 18] | Plant response rating, Redroot pigweed [7, 19] | Redroot pigweed plant response rating [7, 21] | Redroot pigweed plant response rating [7, 22] | Plant response rating, Redroot pigweed [7, 23] | Redroot pigweed plant response rating [7, 24] | Rape plant response rating [8, 17] | Rape plant response rating [8, 18] | Plant response rating, Rape [8, 19] | Rape plant response rating [8, 21] | Rape plant response rating [8, 22] | Plant response rating, Rape [8, 23] | Rape plant response rating [8, 24] | Velvetleaf plant response rating [9, 17] | Velvetleaf plant response rating [9, 18] | Plant response rating, Velvetleaf [9, 19] | Velvetleaf plant response rating [9, 21] | Velvetleaf plant response rating [9, 22] | Plant response rating, Velvetleaf [9, 23] | Velvetleaf plant response rating [9, 24] | Nutsedge plant response rating [10, 17] | Nutsedge plant response rating [10, 18] | Plant response rating, Nutsedge [10, 19] | Nutsedge plant response rating [10, 21] | Nutsedge plant response rating [10, 22] | Plant response rating, Nutsedge [10, 23] | Nutsedge plant response rating [10, 24] | Wild oats plant response rating [11, 17] | Wild oats plant response rating [11, 18] | Plant response rating, Wild oats [11, 19] | Wild oats plant response rating [11, 21] | Plant response rating, Wild oats [11, 23] | Wild oats plant response rating [11, 24] | Sugarbeets plant response rating [12, 17] | Sugarbeets plant response rating [12, 18] | Plant response rating, Sugarbeets [12, 19] | Sugarbeets plant response rating [12, 21] | Sugarbeets plant response rating [12, 22] | Plant response rating, Sugarbeets [12, 23] | Sugarbeets plant response rating [12, 24] | Rice plant response rating [13, 25] | Rice plant response rating [13, 26] | Rice plant response rating [13, 27] | Rice plant response rating [13, 28] | Ducksalad plant response rating [14, 25] | Ducksalad plant response rating [14, 26] | Ducksalad plant response rating [14, 27] | Ducksalad plant response rating [14, 28] | B. signalgrass plant response rating [15, 17] | B. signalgrass plant response rating [15, 18] | Plant response rating, B. signalgrass [15, 19] | B. signalgrass plant response rating [15, 20] | B. signalgrass plant response rating [15, 21] | B. signalgrass plant response rating [15, 22] | Plant response rating, B. signalgrass [15, 23] | B. signalgrass plant response rating [15, 24] | Wheat plant response rating [16, 17] | Wheat plant response rating [16, 18] | Plant response rating, Wheat [16, 19] | Wheat plant response rating [16, 21] | Wheat plant response rating [16, 22] | Plant response rating, Wheat [16, 23] | Wheat plant response rating [16, 24]
2: Plant response rating, Soybean [2, 23] | Soybean plant response rating [2, 24]
